Measured values reported in ChEMBL document CHEMBL1201862, “PubChem BioAssay data set” (2004).
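Tested at 5 concentrations; 48 h exposure; 96-well plates; endpoints linearly interpolated, else capped at highest concentration. GI50: concentration for 50% inhibition of growth.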 The source made the active and inactive calls. No stated cut-off is given here; in the data, active = GI50 up to about 1.1 µM and inactive = higher.

Assays:
Test in all cases: growth of human tumour cells (NCI), 48 h
A549 = test system: A549
COLO 205 = test system: COLO 205
HCT-15 = test system: HCT-15
HOP-62 = test system: HOP-62
K562 = test system: K562
LOX IMVI = test system: LOX IMVI
MOLT-4 = test system: MOLT-4
NCI-H226 = test system: NCI-H226
NCI-H522 = test system: NCI-H522
OVCAR-4 = test system: OVCAR-4
OVCAR-5 = test system: OVCAR-5
OVCAR-8 = test system: OVCAR-8
RPMI-8226 = test system: RPMI-8226
SN12C = test system: SN12C
SNB-75 = test system: SNB-75
U-251 = test system: U-251
UACC-257 = test system: UACC-257
UACC-62 = test system: UACC-62
CCRF-CEM = test system: CCRF-CEM
OVCAR-3 = test system: OVCAR-3

## Nc1ccc(N(S(=O)(=O)c2ccccc2)S(=O)(=O)c2ccccc2)c(Cl)c1
A549
  GI50: 50.5 µM (inactive)
COLO 205
  GI50: 21 µM (inactive)
HCT-15
  GI50: 55.7 µM
HOP-62
  GI50: 63.8 µM (inactive)
K562
  GI50: 2.98 µM (inactive)
LOX IMVI
  GI50: 68.1 µM (inactive)
MOLT-4
  GI50: 14.2 µM (inactive)
NCI-H226
  GI50: 73.5 µM (inactive)
NCI-H522
  GI50: 33.9 µM (inactive)
OVCAR-4
  GI50: 75.3 µM (inactive)
OVCAR-5
  GI50: > 100 µM (inactive)
OVCAR-8
  GI50: 70.8 µM (inactive)
RPMI-8226
  GI50: 28.7 µM (inactive)
SN12C
  GI50: 75.9 µM (inactive)
SNB-75
  GI50: 42.2 µM (inactive)
U-251
  GI50: 39.3 µM (inactive)
UACC-257
  GI50: 34.3 µM (inactive)
UACC-62
  GI50: 24.8 µM (inactive)

## O=C1CCCCC2N(C(c3ccccc3)c3ccccc3)CC[C@@]12c1ccccc1.O=C1CCCC[C@H]2N(C(c3ccccc3)c3ccccc3)CC[C@@]12c1ccccc1 (stereo not given in full)
A549
  GI50: > 10 µM (inactive)
CCRF-CEM
  GI50: 6.12 µM (inactive)
HCT-15
  GI50: 7.93 µM
K562
  GI50: 4.27 µM (inactive)
LOX IMVI
  GI50: 6.3 µM (inactive)
MOLT-4
  GI50: 3.06 µM (inactive)
NCI-H226
  GI50: 6.38 µM (inactive)
NCI-H522
  GI50: 3.68 µM (inactive)
OVCAR-3
  GI50: > 10 µM (inactive)
OVCAR-4
  GI50: 4.21 µM (inactive)
OVCAR-5
  GI50: > 10 µM (inactive)
OVCAR-8
  GI50: > 10 µM (inactive)
RPMI-8226
  GI50: 2.77 µM (inactive)
SN12C
  GI50: > 10 µM (inactive)
SNB-75
  GI50: > 10 µM (inactive)
U-251
  GI50: > 10 µM (inactive)
UACC-257
  GI50: 6.14 µM (inactive)
UACC-62
  GI50: > 10 µM (inactive)

## CN(C)CCCNC(=O)N/N=C/c1ccccc1
A549
  GI50: > 100 µM (inactive)
CCRF-CEM
  GI50: > 100 µM (inactive)
HCT-15
  GI50: > 100 µM
K562
  GI50: > 100 µM (inactive)
LOX IMVI
  GI50: > 100 µM (inactive)
MOLT-4
  GI50: > 100 µM (inactive)
NCI-H226
  GI50: > 100 µM (inactive)
NCI-H522
  GI50: > 100 µM (inactive)
OVCAR-3
  GI50: > 100 µM (inactive)
OVCAR-8
  GI50: > 100 µM (inactive)
SN12C
  GI50: > 100 µM (inactive)
SNB-75
  GI50: > 100 µM (inactive)
U-251
  GI50: > 100 µM (inactive)
UACC-257
  GI50: > 100 µM (inactive)
UACC-62
  GI50: > 100 µM (inactive)

## C=CCC12CC(=O)C=C1CCC1(C2)OCCO1 (stereo not given)
A549
  GI50: > 100 µM (inactive)
CCRF-CEM
  GI50: > 100 µM (inactive)
COLO 205
  GI50: > 100 µM (inactive)
HCT-15
  GI50: > 100 µM
HOP-62
  GI50: > 100 µM (inactive)
K562
  GI50: > 100 µM (inactive)
MOLT-4
  GI50: > 100 µM (inactive)
NCI-H226
  GI50: > 100 µM (inactive)
NCI-H522
  GI50: > 100 µM (inactive)
OVCAR-3
  GI50: > 100 µM (inactive)
OVCAR-4
  GI50: > 100 µM (inactive)
RPMI-8226
  GI50: > 100 µM (inactive)
SN12C
  GI50: > 100 µM (inactive)
SNB-75
  GI50: > 100 µM (inactive)
U-251
  GI50: > 100 µM (inactive)
UACC-257
  GI50: > 100 µM (inactive)
UACC-62
  GI50: > 100 µM (inactive)

## N#Cc1c(NC(=S)NC(=O)c2ccccc2)nc2c(c1-c1ccccc1)CCCC2
A549
  GI50: > 100 µM (inactive)
CCRF-CEM
  GI50: > 100 µM (inactive)
COLO 205
  GI50: > 100 µM (inactive)
HCT-15
  GI50: > 100 µM
HOP-62
  GI50: 45.3 µM (inactive)
K562
  GI50: > 100 µM (inactive)
LOX IMVI
  GI50: > 100 µM (inactive)
MOLT-4
  GI50: > 100 µM (inactive)
OVCAR-3
  GI50: > 100 µM (inactive)
OVCAR-4
  GI50: 22.5 µM (inactive)
OVCAR-5
  GI50: > 100 µM (inactive)
OVCAR-8
  GI50: 36.6 µM (inactive)
RPMI-8226
  GI50: > 100 µM (inactive)
SN12C
  GI50: > 10 µM (inactive)
SNB-75
  GI50: 17.1 µM (inactive)
U-251
  GI50: > 100 µM (inactive)
UACC-257
  GI50: > 100 µM (inactive)
UACC-62
  GI50: > 100 µM (inactive)

## COc1ccc(C2c3cc4c(cc3OC(NCCO)C2C)OCO4)cc1 (stereo not given)
A549
  GI50: 21.7 µM (inactive)
CCRF-CEM
  GI50: 21.2 µM (inactive)
COLO 205
  GI50: 18.4 µM (inactive)
HCT-15
  GI50: 17.7 µM
HOP-62
  GI50: 29.8 µM (inactive)
K562
  GI50: 22.5 µM (inactive)
LOX IMVI
  GI50: 23.3 µM (inactive)
MOLT-4
  GI50: 16.6 µM (inactive)
NCI-H226
  GI50: 28.2 µM (inactive)
NCI-H522
  GI50: 16.6 µM (inactive)
OVCAR-3
  GI50: 17.8 µM (inactive)
OVCAR-5
  GI50: 39.7 µM (inactive)
RPMI-8226
  GI50: 22.1 µM (inactive)
SN12C
  GI50: 23.8 µM (inactive)
SNB-75
  GI50: 19.6 µM (inactive)
U-251
  GI50: 21.2 µM (inactive)
UACC-257
  GI50: 21 µM (inactive)
UACC-62
  GI50: 28.2 µM (inactive)

## CC(C)CC(N)C(=O)NC(CNC(CCC(N)=O)C(=O)NC(CC(C)C)C(=O)NC(CC(C)C)C(=O)O)Cc1ccc2ccccc2c1 (stereo not given)
A549
  GI50: > 10 µM (inactive)
CCRF-CEM
  GI50: > 10 µM (inactive)
COLO 205
  GI50: > 10 µM (inactive)
HCT-15
  GI50: > 10 µM
HOP-62
  GI50: > 10 µM (inactive)
K562
  GI50: > 10 µM (inactive)
LOX IMVI
  GI50: > 10 µM (inactive)
MOLT-4
  GI50: > 10 µM (inactive)
NCI-H226
  GI50: > 10 µM (inactive)
OVCAR-3
  GI50: > 10 µM (inactive)
OVCAR-4
  GI50: > 10 µM (inactive)
OVCAR-5
  GI50: > 10 µM (inactive)
OVCAR-8
  GI50: > 10 µM (inactive)
RPMI-8226
  GI50: > 10 µM (inactive)
SN12C
  GI50: > 10 µM (inactive)
SNB-75
  GI50: > 10 µM (inactive)
U-251
  GI50: > 10 µM (inactive)
UACC-257
  GI50: > 10 µM (inactive)
UACC-62
  GI50: > 10 µM (inactive)

## Cc1c(Cl)c(=O)oc2cc(OCC(=O)c3ccccc3)ccc12
A549
  GI50: > 100 µM (inactive)
CCRF-CEM
  GI50: > 100 µM (inactive)
COLO 205
  GI50: > 100 µM (inactive)
HCT-15
  GI50: > 100 µM
HOP-62
  GI50: 31.3 µM (inactive)
K562
  GI50: > 100 µM (inactive)
MOLT-4
  GI50: > 100 µM (inactive)
NCI-H226
  GI50: > 100 µM (inactive)
NCI-H522
  GI50: > 100 µM (inactive)
OVCAR-3
  GI50: > 100 µM (inactive)
OVCAR-4
  GI50: > 100 µM (inactive)
OVCAR-5
  GI50: > 100 µM (inactive)
OVCAR-8
  GI50: > 100 µM (inactive)
SN12C
  GI50: > 100 µM (inactive)
U-251
  GI50: 33.2 µM (inactive)
UACC-257
  GI50: > 100 µM (inactive)
UACC-62
  GI50: > 100 µM (inactive)
